# Source: patent publication US11427574B2, “Compounds for treating Rac-GTPase mediated disorder” (Children's Medical Center Corporation, priority 2015, dated 2022)
# How the values were obtained:
# [1] = system: normal bone marrow hematopoietic and progenitor cells; assay: Colony forming unit assay (CFU assay) for toxicity; type: cell-based; settings: semi-solid media, different doses
# Protocol: Compound 1 was tested for toxicity in a colony forming unit assay (CFU assay), which was performed by plating normal bone marrow hematopoietic and progenitor cells in semi-solid media supplemented with different doses of Compound 1, NSC23766, and DMSO.
# Compound 2 was also tested for toxicity in a colony forming unit assay (CFU assay), which was performed by plating normal bone marrow hematopoietic and progenitor cells in semi-solid media supplemented with different doses of Compound 2, NSC23766, and DMSO.
# ABL1 = ABL1 (Homo sapiens, UniProt P00519); assay: Kinase screening; type: biochemical
# Protocol: (§1) Compound 1 was tested for its efficacy in inhibiting activities of 40 kinases and binding with 12 GPCRs both as an antagonist and an agonist.
# AKT2 (PKB beta) = AKT2 (PKB beta) (Homo sapiens, UniProt P31751); assay: Kinase screening; type: biochemical
# Protocol: as §1
# CDC42 BPA (MRCKA) = CDC42 BPA (MRCKA) (Homo sapiens, UniProt Q5VT25); assay: Kinase screening; type: biochemical
# Protocol: as §1
# CDK1/cyclin B = CDK1/cyclin B (Homo sapiens, UniProt P06493); assay: Kinase screening; type: biochemical
# Protocol: as §1
# CDK5/p25 = CDK5/p25 (Homo sapiens, UniProt Q00535); assay: Kinase screening; type: biochemical
# Protocol: as §1
# EGFR (ErbB1) = EGFR (ErbB1) (Homo sapiens, UniProt P00533); assay: Kinase screening; type: biochemical
# Protocol: as §1
# EPHB1 = EPHB1 (Homo sapiens, UniProt P54762); assay: Kinase screening; type: biochemical
# Sequence of EPHB1 (P54762 18-984, species assumed): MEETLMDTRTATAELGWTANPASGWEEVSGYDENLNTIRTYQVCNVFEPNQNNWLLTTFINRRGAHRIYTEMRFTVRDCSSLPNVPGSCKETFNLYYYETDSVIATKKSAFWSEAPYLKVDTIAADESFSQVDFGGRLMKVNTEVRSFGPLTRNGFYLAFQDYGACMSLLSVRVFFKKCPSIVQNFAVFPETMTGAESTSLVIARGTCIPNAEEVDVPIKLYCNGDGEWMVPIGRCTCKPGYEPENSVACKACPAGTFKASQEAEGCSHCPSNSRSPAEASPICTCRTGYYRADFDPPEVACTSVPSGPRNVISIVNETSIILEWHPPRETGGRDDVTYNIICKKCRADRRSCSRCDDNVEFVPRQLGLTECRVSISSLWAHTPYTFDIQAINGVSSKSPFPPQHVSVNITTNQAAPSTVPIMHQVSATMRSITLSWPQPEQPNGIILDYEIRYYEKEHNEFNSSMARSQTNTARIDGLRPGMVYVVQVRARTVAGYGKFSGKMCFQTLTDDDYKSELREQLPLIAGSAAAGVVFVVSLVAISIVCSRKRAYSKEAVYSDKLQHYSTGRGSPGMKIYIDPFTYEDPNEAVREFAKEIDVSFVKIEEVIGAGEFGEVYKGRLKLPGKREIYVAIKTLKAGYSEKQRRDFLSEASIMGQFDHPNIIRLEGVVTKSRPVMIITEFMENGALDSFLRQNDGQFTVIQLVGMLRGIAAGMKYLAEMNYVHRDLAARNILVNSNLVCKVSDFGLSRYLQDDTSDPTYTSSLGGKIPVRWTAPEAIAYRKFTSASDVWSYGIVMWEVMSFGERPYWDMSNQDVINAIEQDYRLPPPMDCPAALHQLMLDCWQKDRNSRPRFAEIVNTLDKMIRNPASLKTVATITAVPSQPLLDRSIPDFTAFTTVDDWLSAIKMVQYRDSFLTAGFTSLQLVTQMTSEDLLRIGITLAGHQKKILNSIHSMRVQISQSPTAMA
# Protocol: as §1
# FLT3 = FLT3 (Homo sapiens, UniProt P36888); assay: Kinase screening; type: biochemical
# Protocol: as §1
# IGF1R = IGF1R (Homo sapiens, UniProt P08069); assay: Kinase screening; type: biochemical
# Protocol: as §1
# JAK1 = JAK1 (Homo sapiens, UniProt P23458); assay: Kinase screening; type: biochemical
# Protocol: as §1
# JAK2 = JAK2 (Homo sapiens, UniProt O60674); assay: Kinase screening; type: biochemical
# Protocol: as §1
# JAK3 = JAK3 (Homo sapiens, UniProt P52333); assay: Kinase screening; type: biochemical
# Protocol: as §1
# LIMK1 = LIMK1 (Homo sapiens, UniProt P53667); assay: Kinase screening; type: biochemical
# Protocol: as §1
# MAP2K2 (MEK2) = MAP2K2 (MEK2) (Homo sapiens, UniProt P36507); assay: Kinase screening; type: biochemical
# Sequence of MAP2K2 (MEK2) (P36507 whole entry, species assumed): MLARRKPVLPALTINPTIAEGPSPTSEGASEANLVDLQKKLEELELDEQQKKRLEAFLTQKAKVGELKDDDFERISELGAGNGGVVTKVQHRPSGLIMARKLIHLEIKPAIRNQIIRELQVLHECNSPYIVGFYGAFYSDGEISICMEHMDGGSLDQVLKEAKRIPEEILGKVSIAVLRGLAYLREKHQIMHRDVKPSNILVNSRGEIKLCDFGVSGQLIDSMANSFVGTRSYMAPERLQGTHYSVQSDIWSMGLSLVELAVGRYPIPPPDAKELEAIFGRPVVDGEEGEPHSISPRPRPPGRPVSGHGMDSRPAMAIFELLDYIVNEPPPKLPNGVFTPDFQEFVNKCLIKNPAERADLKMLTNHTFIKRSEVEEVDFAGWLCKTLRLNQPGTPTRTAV
# Protocol: as §1
# MAP3K2 (MEKK2) = MAP3K2 (MEKK2) (Homo sapiens, UniProt Q9Y2U5); assay: Kinase screening; type: biochemical
# Protocol: as §1
# MAPK8 (JNK1) = MAPK8 (JNK1) (Homo sapiens, UniProt P45983); assay: Kinase screening; type: biochemical
# Sequence of MAPK8 (JNK1) (P45983 whole entry, species assumed): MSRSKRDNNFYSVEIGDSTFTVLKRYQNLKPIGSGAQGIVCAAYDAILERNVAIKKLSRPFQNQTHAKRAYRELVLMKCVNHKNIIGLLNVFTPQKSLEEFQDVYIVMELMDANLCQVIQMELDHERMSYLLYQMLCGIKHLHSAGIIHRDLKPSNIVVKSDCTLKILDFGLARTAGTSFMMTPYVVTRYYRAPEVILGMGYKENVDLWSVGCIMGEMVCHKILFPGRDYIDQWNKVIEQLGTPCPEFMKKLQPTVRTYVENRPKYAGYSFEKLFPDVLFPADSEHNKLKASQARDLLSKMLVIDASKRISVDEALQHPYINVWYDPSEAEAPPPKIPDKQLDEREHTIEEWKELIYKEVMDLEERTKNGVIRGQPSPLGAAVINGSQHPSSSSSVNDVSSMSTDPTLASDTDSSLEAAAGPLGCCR
# Protocol: as §1
# MAPK9 (JNK2) = MAPK9 (JNK2) (Homo sapiens, UniProt P45984); assay: Kinase screening; type: biochemical
# Protocol: as §1
# MYLK (MLCK) = MYLK (MLCK) (Homo sapiens, UniProt Q15746); assay: Kinase screening; type: biochemical
# Sequence of MYLK (MLCK) (Q15746 whole entry, species assumed): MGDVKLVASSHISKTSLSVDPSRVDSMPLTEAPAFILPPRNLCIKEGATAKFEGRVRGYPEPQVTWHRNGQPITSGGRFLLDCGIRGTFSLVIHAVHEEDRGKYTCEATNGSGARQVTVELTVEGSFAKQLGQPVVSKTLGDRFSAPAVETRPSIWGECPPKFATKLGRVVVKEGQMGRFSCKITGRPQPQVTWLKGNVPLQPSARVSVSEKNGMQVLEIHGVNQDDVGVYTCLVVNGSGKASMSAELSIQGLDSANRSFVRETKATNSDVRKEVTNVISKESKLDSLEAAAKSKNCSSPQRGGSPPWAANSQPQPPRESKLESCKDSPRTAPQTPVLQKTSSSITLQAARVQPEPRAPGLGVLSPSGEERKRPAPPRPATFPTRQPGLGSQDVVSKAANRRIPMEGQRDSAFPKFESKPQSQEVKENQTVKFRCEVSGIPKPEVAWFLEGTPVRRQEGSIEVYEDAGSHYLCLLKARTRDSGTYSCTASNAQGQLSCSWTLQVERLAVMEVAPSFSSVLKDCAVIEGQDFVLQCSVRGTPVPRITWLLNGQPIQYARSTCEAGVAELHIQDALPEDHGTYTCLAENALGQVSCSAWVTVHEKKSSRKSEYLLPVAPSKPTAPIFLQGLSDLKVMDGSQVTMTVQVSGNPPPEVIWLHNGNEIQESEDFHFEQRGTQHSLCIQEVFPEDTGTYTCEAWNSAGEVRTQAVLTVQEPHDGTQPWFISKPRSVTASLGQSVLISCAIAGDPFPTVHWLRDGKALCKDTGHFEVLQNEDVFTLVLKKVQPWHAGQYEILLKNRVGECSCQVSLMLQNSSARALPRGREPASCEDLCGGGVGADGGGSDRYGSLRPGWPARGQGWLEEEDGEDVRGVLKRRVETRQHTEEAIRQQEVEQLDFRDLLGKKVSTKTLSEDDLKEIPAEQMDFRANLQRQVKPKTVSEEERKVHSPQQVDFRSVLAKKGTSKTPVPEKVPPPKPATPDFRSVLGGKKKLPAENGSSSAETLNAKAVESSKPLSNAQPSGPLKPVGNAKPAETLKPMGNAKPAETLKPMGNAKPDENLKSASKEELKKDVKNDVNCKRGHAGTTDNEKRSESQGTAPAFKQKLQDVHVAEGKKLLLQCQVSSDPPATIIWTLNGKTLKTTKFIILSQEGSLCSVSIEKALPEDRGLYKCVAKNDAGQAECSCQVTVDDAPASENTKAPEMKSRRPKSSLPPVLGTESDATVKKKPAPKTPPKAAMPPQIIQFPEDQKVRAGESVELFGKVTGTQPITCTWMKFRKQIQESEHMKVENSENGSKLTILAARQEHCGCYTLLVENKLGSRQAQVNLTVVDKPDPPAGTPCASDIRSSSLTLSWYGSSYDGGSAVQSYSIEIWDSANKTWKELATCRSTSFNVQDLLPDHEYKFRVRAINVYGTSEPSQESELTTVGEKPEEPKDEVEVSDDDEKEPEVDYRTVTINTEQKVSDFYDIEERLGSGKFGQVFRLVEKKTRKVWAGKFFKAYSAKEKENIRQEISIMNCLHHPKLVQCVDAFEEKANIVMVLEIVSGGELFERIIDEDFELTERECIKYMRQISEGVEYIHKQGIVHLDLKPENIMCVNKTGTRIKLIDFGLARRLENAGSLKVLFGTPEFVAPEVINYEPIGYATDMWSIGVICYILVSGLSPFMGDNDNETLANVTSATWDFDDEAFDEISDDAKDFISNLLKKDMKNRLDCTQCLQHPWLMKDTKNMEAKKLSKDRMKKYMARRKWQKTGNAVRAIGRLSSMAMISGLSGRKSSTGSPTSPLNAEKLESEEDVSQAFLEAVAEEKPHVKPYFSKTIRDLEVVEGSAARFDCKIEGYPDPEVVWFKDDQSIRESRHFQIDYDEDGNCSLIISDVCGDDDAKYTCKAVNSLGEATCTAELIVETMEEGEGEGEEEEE
# Protocol: as §1
# PAK1 = PAK1 (Homo sapiens, UniProt Q13153); assay: Kinase screening; type: biochemical
# Protocol: as §1
# PAK2 (PAK65) = PAK2 (PAK65) (Homo sapiens, UniProt Q13177); assay: Kinase screening; type: biochemical
# Sequence of PAK2 (PAK65) (Q13177 whole entry, species assumed): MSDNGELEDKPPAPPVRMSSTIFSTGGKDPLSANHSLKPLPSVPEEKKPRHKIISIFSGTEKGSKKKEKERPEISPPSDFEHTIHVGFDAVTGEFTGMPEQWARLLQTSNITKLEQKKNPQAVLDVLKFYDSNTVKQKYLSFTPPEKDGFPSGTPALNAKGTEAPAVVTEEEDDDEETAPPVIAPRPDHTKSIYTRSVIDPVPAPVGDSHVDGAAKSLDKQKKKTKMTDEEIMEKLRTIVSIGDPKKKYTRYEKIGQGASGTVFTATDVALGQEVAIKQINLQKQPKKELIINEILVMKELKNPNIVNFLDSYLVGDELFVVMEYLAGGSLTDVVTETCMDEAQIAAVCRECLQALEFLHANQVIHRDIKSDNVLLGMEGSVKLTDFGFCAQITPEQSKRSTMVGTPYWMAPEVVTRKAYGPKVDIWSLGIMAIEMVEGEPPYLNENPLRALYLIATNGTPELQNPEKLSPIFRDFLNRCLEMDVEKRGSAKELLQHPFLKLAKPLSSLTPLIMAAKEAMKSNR
# Protocol: as §1
# PAK3 = PAK3 (Homo sapiens, UniProt O75914); assay: Kinase screening; type: biochemical
# Protocol: as §1
# PAK4 = PAK4 (Homo sapiens, UniProt O96013); assay: Kinase screening; type: biochemical
# Protocol: as §1
# PAK6 = PAK6 (Homo sapiens, UniProt Q9NQU5); assay: Kinase screening; type: biochemical
# Protocol: as §1
# PAK7 (KIAA1264) = PAK7 (KIAA1264) (Homo sapiens, UniProt Q9P286); assay: Kinase screening; type: biochemical
# Sequence of PAK7 (KIAA1264) (Q9P286 whole entry, species assumed): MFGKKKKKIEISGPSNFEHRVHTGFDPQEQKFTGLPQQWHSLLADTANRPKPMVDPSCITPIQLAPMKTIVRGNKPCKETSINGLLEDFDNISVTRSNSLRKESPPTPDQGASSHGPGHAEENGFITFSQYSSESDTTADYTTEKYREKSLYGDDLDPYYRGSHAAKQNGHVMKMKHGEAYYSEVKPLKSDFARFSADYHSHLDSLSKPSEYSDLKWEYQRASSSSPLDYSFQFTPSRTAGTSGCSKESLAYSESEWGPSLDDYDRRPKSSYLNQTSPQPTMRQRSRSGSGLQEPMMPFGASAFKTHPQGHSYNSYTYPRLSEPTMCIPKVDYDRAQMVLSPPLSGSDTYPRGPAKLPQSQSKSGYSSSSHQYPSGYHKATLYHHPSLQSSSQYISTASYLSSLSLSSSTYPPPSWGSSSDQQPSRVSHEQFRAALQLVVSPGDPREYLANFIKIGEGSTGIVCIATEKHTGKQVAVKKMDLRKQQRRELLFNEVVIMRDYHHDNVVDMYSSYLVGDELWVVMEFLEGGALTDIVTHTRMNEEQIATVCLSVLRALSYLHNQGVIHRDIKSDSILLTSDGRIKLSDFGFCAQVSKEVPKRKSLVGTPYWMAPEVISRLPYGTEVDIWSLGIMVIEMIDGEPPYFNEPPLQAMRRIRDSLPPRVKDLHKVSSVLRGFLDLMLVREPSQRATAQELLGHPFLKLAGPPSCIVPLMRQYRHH
# Protocol: as §1
# PDGFRA (PDGFR alpha) = PDGFRA (PDGFR alpha) (Homo sapiens, UniProt P16234); assay: Kinase screening; type: biochemical
# Protocol: as §1
# PIK3C2A (PI3K-C2 alpha) = PIK3C2A (PI3K-C2 alpha) (Homo sapiens, UniProt O00443); assay: Kinase screening; type: biochemical
# Protocol: as §1
# PIK3C2B (PI3K-C2 beta) = PIK3C2B (PI3K-C2 beta) (Homo sapiens, UniProt O00750); assay: Kinase screening; type: biochemical
# Protocol: as §1
# PIK3C3 (hVPS34) = PIK3C3 (hVPS34) (Homo sapiens, UniProt Q8NEB9); assay: Kinase screening; type: biochemical
# Protocol: as §1
# [2] = target: PIK3CA/PIK3R1 (p110 alpha/p85 alpha) (Homo sapiens, UniProt P42336); assay: Kinase screening; type: biochemical
# Protocol: as §1
# [3] = target: PIK3CD/PIK3R1 (p110 delta/p85 alpha) (Homo sapiens, UniProt O00329); assay: Kinase screening; type: biochemical
# Protocol: as §1
# ROCK1 = ROCK1 (Homo sapiens, UniProt Q13464); assay: Kinase screening; type: biochemical
# Protocol: as §1
# ROCK2 = ROCK2 (Homo sapiens, UniProt O75116); assay: Kinase screening; type: biochemical
# Protocol: as §1
# SRC = SRC (Homo sapiens, UniProt P12931); assay: Kinase screening; type: biochemical
# Protocol: as §1
# SYK = SYK (Homo sapiens, UniProt P43405); assay: Kinase screening; type: biochemical
# Protocol: as §1
smiles,measurement,setting,value
CCc1ccc(CN(C)C(=O)CCc2nnc(CCc3c[nH]c4ccccc34)o2)nc1 (racemic) [Compound 1],toxicity toward normal bone marrow cells,[1],did not exhibit toxicity
same,inhibition percentage,ABL1,0.6 percentage
same,inhibition percentage,AKT2 (PKB beta),11.5 percentage
same,inhibition percentage,CDC42 BPA (MRCKA),2.8 percentage
same,inhibition percentage,CDK1/cyclin B,−2.3 percentage
same,inhibition percentage,CDK5/p25,1.0 percentage
same,inhibition percentage,EGFR (ErbB1),−10.4 percentage
same,inhibition percentage,EPHB1,7.1 percentage
same,inhibition percentage,FLT3,−15.3 percentage
same,inhibition percentage,IGF1R,−7.4 percentage
same,inhibition percentage,JAK1,−3.3 percentage
same,inhibition percentage,JAK2,−11.6 percentage
same,inhibition percentage,JAK3,−16.3 percentage
same,inhibition percentage,LIMK1,−1.1 percentage
same,inhibition percentage,MAP2K2 (MEK2),13.3 percentage
same,inhibition percentage,MAP3K2 (MEKK2),5.9 percentage
same,inhibition percentage,MAPK8 (JNK1),0.4 percentage
same,inhibition percentage,MAPK9 (JNK2),10.9 percentage
same,inhibition percentage,MYLK (MLCK),1.2 percentage
same,inhibition percentage,PAK1,22.7 percentage
same,inhibition percentage,PAK2 (PAK65),−8.5 percentage
same,inhibition percentage,PAK3,−10.2 percentage
same,inhibition percentage,PAK4,6.4 percentage
same,inhibition percentage,PAK6,−0.6 percentage
same,inhibition percentage,PAK7 (KIAA1264),−11.5 percentage
same,inhibition percentage,PDGFRA (PDGFR alpha),15.1 percentage
same,inhibition percentage,PIK3C2A (PI3K-C2 alpha),−1.3 percentage
same,inhibition percentage,PIK3C2B (PI3K-C2 beta),−10.9 percentage
same,inhibition percentage,PIK3C3 (hVPS34),−12.5 percentage
same,inhibition percentage,[2],11.0 percentage
same,inhibition percentage,[3],9.0 percentage
same,inhibition percentage,ROCK1,−4.6 percentage
same,inhibition percentage,ROCK2,−2.0 percentage
same,inhibition percentage,SRC,8.7 percentage
same,inhibition percentage,SYK,7.0 percentage
